Laboratory results as given in patent US8314122B2, “Using of organic solvents in wet granulation of moxifloxacin” (Abdi Ibrahim Ilac Sanayi Ve Ticaret Anonim Sirketi, priority 2008, dated 2012).
Entries after “also recorded” stand apart in the source; their conditions may differ. Where a name gives a salt, the structure may show the parent alone.

Assay: Wet granulation of anhydrous moxifloxacin hydrochloride, crystal form checked by X-ray powder diffractogram
Format: physicochemical
Excerpt: Using of anhydrous moxifloxacin hydrochloride, of which X-ray powder diffractogram could be seen (FIG. 2), in pharmaceutical formulations provides eligible stability therefore preferred rather than moxifloxacin hydrochloride monohydrate. […] It is not desired and it should be prevented.
A wet granulation method with an organic solvent or mixtures of organic solvents is describe herein in which the organic solvent or mixtures of organic solvents are selected from isopropyl alcohol (IPA), acetone, ethanol, dichloromethane and mixtures thereof. […] It is not desired to be converted and thence If conversion is not desired, then granulation should not be performed with water or water mixtures. Anhydrous moxifloxacin hydrochloride should not be exposed to water in the preparation stage. The organic solvent is selected from isopropyl alcohol (IPA), acetone, ethanol, dichloromethane or mixtures thereof in the wet granulation method so as to obtain non-convertible formulations (respectively FIG. 4, FIG. 5, FIG. 6, FIG. 7).
POVIDONE K-30 (polyvinylpyrrolidone) is added to isopropyl alcohol and mixed until the POVIDONE K-30 (polyvinylpyrrolidone) is completely dissolved (Step 1). Moxifloxacin Hydrochloride and Microcrystalline Cellulose are transferred to a granulator and mixed (Step 2). The granulation solution from step 1 is added to the powder mixtures from step 2 and mixed. Wet granules are taken from the granulator to the oven and dried. The granules are sieved. MANNITOL SD 200 (mannitol) and croscarmellose sodium are transferred to the mixtures in the container and mixed. Magnesium stearate is sieved and added to the mixtures in the container and sieved. The blend is tabletted using appropriate punches according to the specifications.

COc1c(N2C[C@@H]3CCCN[C@@H]3C2)c(F)cc2c(=O)c(C(=O)O)cn(C3CC3)c12 [anhydrous moxifloxacin hydrochloride]
conversion of anhydrous form to moxifloxacin hydrochloride monohydrate (wet granulation with acetone (FIG. 5)): no conversion to moxifloxacin hydrochloride monohydrate | conversion of anhydrous form to moxifloxacin hydrochloride monohydrate (wet granulation with dichloromethane (FIG. 7)): no conversion to moxifloxacin hydrochloride monohydrate | conversion of anhydrous form to moxifloxacin hydrochloride monohydrate (wet granulation with ethanol (FIG. 6)): no conversion to moxifloxacin hydrochloride monohydrate | conversion of anhydrous form to moxifloxacin hydrochloride monohydrate (wet granulation with isopropyl alcohol (FIG. 4)): no conversion | conversion of anhydrous form to moxifloxacin hydrochloride monohydrate (wet granulation with water as wetting agent (FIG. 3), hydrochloride): instantly converted to moxifloxacin hydrochloride monohydrate; also recorded: conversion from anhydrous moxifloxacin hydrochloride to moxifloxacin hydrochloride monohydrate
